Here are results for 2 compounds from US11149248B2, “Bioreactor system” (KIYATEC INC., priority 2013, dated 2021).

In experiment [1] the test system is Human mammary epithelial cells (hMEC). In words: PrestoBlue cell viability analysis in 2D, 3D static and 3D perfusion culture. Format: cell-based. As to conditions: hMEC cultured over 7 days with increasing concentrations of cisplatin, 3D static, 3D perfusion (FIG. 16). How it is done: (§1) The experiment was performed in a single chamber culture system (one chamber of a 3DKUBE in an “independent chamber” configuration) or using wells in a 12-well plate. […] The inlet port was connected to an opening in a first side of the 3DKUBE cell module and the outlet port connected to an opening in a second side of the cell module. The chamber featured an imaging widow enabling non-lytic analysis inside the chamber through various spectrophotometric and other techniques.
(§2) Human mammary epithelial cells (hMEC) were utilized. For 2D experiments hMEC were cultured on the bottom of 12-well plates as per typical cell culture practices (referred to as “2D” experiments). For 3D static and perfusion experiments hMEC were suspended in a Matrigel™:Collagen (rat tail collagen Type I) mixture which was added to silk fibroin scaffolds (H 2.5 mm×W 5 mm) contained in 12-well plates (referred to as “3D static”) or 3DKUBEs (referred to as “3D perfusion”). […]
(§3) The secretion of lactate dehydrogenase (LDH) is a non-lytic assay of cytotoxicity. […] The cells were cultured in these 2D, 3D static, or 3D perfusion configurations over 7 days in media alone or in media with increasing concentrations of cisplatin (a DNA alkylating agent used in chemotherapy) and analyzed via PrestoBlue or LDH release (examples of non-lytic means of assessing cell viability or cytotoxicity). […]

Experiment [2] has the same test system. In words: LDH release cytotoxicity assay in 2D, 3D static and 3D perfusion culture. In kind it is cell-based. As to conditions: 2% triton 2 hours prior to analysis, positive control. How it is done: as §1, §2, §3

As for `N.N.[Cl][Pt][Cl]` [cisplatin], in experiment [1], the “cell viability (PrestoBlue analysis)” value was “decrease in cell viability that is only statistically significant in 3D static and 3D perfusion”.
triton: the “maximal cell lysis (LDH release)” value in experiment [2] (2D and 3D static (12-well plates)) was “reduced maximal cell lysis”. For the same compound, the “increase of LDH release” value in experiment [2] (3D perfusion (3DKUBE)) is on record as “approximately 2.5 fold”.
